Assay results as given in patent US20260256792A1, “TREATMENT OF CHRONIC SPONTANEOUS URTICARIA BY ADMINISTERING (R)-2-[3-[4-AMINO-3-(2-FLUORO-4-PHENOXY-PHENYL)PYRAZOLO[3,4-D]PYRIMIDIN-1-YL]PIPERIDINE-1-CARBONYL]-4-METHYL-4-[4-(OXETAN-3-YL)PIPERAZIN-1-YL]PENT-2-ENENITRILE” (priority 2023, published 2026).

Tested on: moderate-to-severe chronic spontaneous urticaria (CSU)
Experiment: Phase 2 CSU study: itch severity score over 7 days (ISS7)
Assay type: in vivo, human
Excerpt: The study comprises a 12 week, randomized, double-blind, placebo-controlled, multi-center, dose-ranging efficacy and safety phase, followed by a 40 week open label extension (OLE) phase (see FIG. 1). The study consists of three phases and an optional OLE phase. […] Clinically, CSU is characterized by the spontaneous and recurrent appearance of pruritic hives. The proposed primary endpoints were the UAS7 at Week 12 in EU and EU reference countries and the ISS7 in the US. Regardless of where a participant was from, all assessments were the same. The UAS7 score is a composite score containing both the HSS7 and the ISS7. This allowed a global assessment of the two key components of urticaria: hives and itch. […] The UAS is a validated PRO measure. […] The daily UAS scores range from 0 to 6 point/day. […] Patients were to complete the UAS using the e-diary. […] The following secondary endpoints were to be analyzed using the same approach as for the primary endpoint: • Change from baseline in UAS7 at Week 4 • Change from baseline in UAS7 at Week 12 (for US and US reference countries) • Change from baseline in ISS7 at Week 12 (except US and US reference countries) • Change from baseline in HSS7 at Week 12

[1] = Week 10, 400 mg QPM, Omalizumab-Naïve
[2] = Week 10, 400 mg QPM, Prior Omalizumab Use
[3] = Week 10, 400 mg TID, Omalizumab-Naïve
[4] = Week 10, 400 mg TID, Prior Omalizumab Use
[5] = Week 11, 400 mg BID, Omalizumab-Naïve
[6] = Week 11, 400 mg BID, Prior Omalizumab Use
[7] = Week 11, 400 mg QPM, Omalizumab-Naïve
[8] = Week 11, 400 mg QPM, Prior Omalizumab Use
[9] = Week 11, 400 mg TID, Omalizumab-Naïve
[10] = Week 11, 400 mg TID, Prior Omalizumab Use
[11] = Week 12, 400 mg BID, Omalizumab-Naïve
[12] = Week 12, 400 mg BID, Prior Omalizumab Use
[13] = Week 12, 400 mg QPM, Omalizumab-Naïve
[14] = Week 12, 400 mg QPM, Prior Omalizumab Use
[15] = Week 12, 400 mg TID, Omalizumab-Naïve
[16] = Week 12, 400 mg TID, Prior Omalizumab Use

CC(C)(C=C(C#N)C(=O)N1CCC[C@@H](n2nc(-c3ccc(Oc4ccccc4)cc3F)c3c(N)ncnc32)C1)N1CCN(C2COC2)CC1 [rilzabrutinib, (R)-2-[3-[4-amino-3-(2-fluoro-4-phenoxy-phenyl)pyrazolo[3,4-d]pyrimidin-1-yl]piperidine-1-carbonyl]-4-methyl-4-[4-(oxetan-3-yl)piperazin-1-yl]pent-2-enenitrile]
ISS7 Change from baseline Median [1]: −6.00
ISS7 Mean (SD) [1]: 10.43 (5.30)
ISS7 Median [1]: 9.50
ISS7 Percent change from baseline Mean (SD) [1]: −37.25 (29.62) %
ISS7 Percent change from baseline Median [1]: −39.23%
ISS7 Change from baseline Mean (SD) [2]: −13.00 (NC)
ISS7 Change from baseline Median [2]: −13.00
ISS7 Mean (SD) [2]: 8.00 (NC)
ISS7 Median [2]: 8.00
ISS7 Percent change from baseline Mean (SD) [2]: −61.90 (NC) %
ISS7 Percent change from baseline Median [2]: −61.90%
ISS7 Change from baseline Mean (SD) [3]: −9.55 (5.37)
ISS7 Change from baseline Median [3]: −10.00
ISS7 Mean (SD) [3]: 6.75 (5.25)
ISS7 Median [3]: 7.00
ISS7 Percent change from baseline Mean (SD) [3]: −58.27 (30.87) %
ISS7 Percent change from baseline Median [3]: −57.19%
ISS7 Change from baseline Mean (SD) [4]: −12.17 (8.26)
ISS7 Change from baseline Median [4]: −13.00
ISS7 Mean (SD) [4]: 4.83 (6.85)
ISS7 Median [4]: 3.00
ISS7 Percent change from baseline Mean (SD) [4]: −68.55 (36.38) %
ISS7 Percent change from baseline Median [4]: −79.76%
ISS7 Change from baseline Mean (SD) [5]: −7.51 (6.18)
ISS7 Change from baseline Median [5]: −8.00
ISS7 Mean (SD) [5]: 7.93 (6.94)
ISS7 Median [5]: 7.00
ISS7 Percent change from baseline Mean (SD) [5]: −49.75 (40.18) %
ISS7 Percent change from baseline Median [5]: −57.14%
ISS7 Change from baseline Mean (SD) [6]: −10.43 (9.36)
ISS7 Change from baseline Median [6]: −13.00
ISS7 Mean (SD) [6]: 6.77 (8.14)
ISS7 Median [6]: 2.00
ISS7 Percent change from baseline Mean (SD) [6]: −58.05 (49.51) %
ISS7 Percent change from baseline Median [6]: −86.67%
ISS7 Change from baseline Mean (SD) [7]: −6.07 (4.83)
ISS7 Change from baseline Median [7]: −6.00
ISS7 Mean (SD) [7]: 11.03 (5.55)
ISS7 Percent change from baseline Mean (SD) [7]: −36.12 (28.12) %
ISS7 Percent change from baseline Median [7]: −30.00%
ISS7 Change from baseline Mean (SD) [8]: −12.00 (NC)
ISS7 Change from baseline Median [8]: −12.00
ISS7 Mean (SD) [8]: 9.00 (NC)
ISS7 Median [8]: 9.00
ISS7 Percent change from baseline Mean (SD) [8]: −57.14 (NC) %
ISS7 Percent change from baseline Median [8]: −57.14%
ISS7 Change from baseline Mean (SD) [9]: −9.23 (5.92)
ISS7 Change from baseline Median [9]: −9.00
ISS7 Mean (SD) [9]: 6.99 (5.53)
ISS7 Median [9]: 7.00
ISS7 Percent change from baseline Mean (SD) [9]: −56.08 (33.60) %
ISS7 Percent change from baseline Median [9]: −60.00%
ISS7 Change from baseline Mean (SD) [10]: −12.58 (8.36)
ISS7 Change from baseline Median [10]: −13.75
ISS7 Mean (SD) [10]: 4.42 (6.99)
ISS7 Median [10]: 1.75
ISS7 Percent change from baseline Mean (SD) [10]: −71.13 (37.09) %
ISS7 Percent change from baseline Median [10]: −87.50%
ISS7 Change from baseline Mean (SD) [11]: −7.40 (6.12)
ISS7 Change from baseline Median [11]: −7.00
ISS7 Mean (SD) [11]: 8.09 (6.95)
ISS7 Median [11]: 7.00
ISS7 Percent change from baseline Mean (SD) [11]: −49.06 (38.85) %
ISS7 Percent change from baseline Median [11]: −45.00%
ISS7 Change from baseline Mean (SD) [12]: −13.50 (9.33)
ISS7 Change from baseline Median [12]: −16.50
ISS7 Mean (SD) [12]: 4.50 (9.00)
ISS7 Median [12]: 0.00
ISS7 Percent change from baseline Mean (SD) [12]: −75.00 (50.00) %
ISS7 Percent change from baseline Median [12]: −100.00%
ISS7 Change from baseline Mean (SD) [13]: −5.69 (4.72)
ISS7 Change from baseline Median [13]: −5.33
ISS7 Median [13]: 11.60
ISS7 Percent change from baseline Mean (SD) [13]: −33.81 (26.94) %
ISS7 Percent change from baseline Median [13]: −32.64%
ISS7 Change from baseline Mean (SD) [14]: −14.00 (NC)
ISS7 Change from baseline Median [14]: −14.00
ISS7 Mean (SD) [14]: 7.00 (NC)
ISS7 Median [14]: 7.00
ISS7 Change from baseline Mean (SD) [15]: −10.27 (6.02)
ISS7 Change from baseline Median [15]: −10.33
ISS7 Mean (SD) [15]: 5.77 (5.26)
ISS7 Median [15]: 7.00
ISS7 Percent change from baseline Mean (SD) [15]: −62.66 (31.72) %
ISS7 Percent change from baseline Median [15]: −57.19%
ISS7 Change from baseline Mean (SD) [16]: −13.00 (9.27)
ISS7 Change from baseline Median [16]: −17.00
ISS7 Mean (SD) [16]: 4.60 (7.80)
ISS7 Median [16]: 0.00
ISS7 Percent change from baseline Mean (SD) [16]: −70.36 (41.41) %
ISS7 Percent change from baseline Median [16]: −100.00%
